Experiments:
[1] = Study 202 treatment-emergent laboratory abnormalities (DAIDS grade); format: in vivo, human
Source text: The 12th subject (Subject 42001) had 2 consecutive CPK elevations (Grade 3 followed by Grade 4) that returned to normal values while continuing treatment at a subsequent visit. None of the CPK elevations were associated with clinical symptoms; no subjects discontinued due to CPK elevations and there were no differences in AEs related to musculoskeletal disorders between the CVC and EFV arms.
The number of subjects with graded treatment-emergent laboratory abnormalities in selected liver parameters of interest is shown in Table 34. No Grade 4 ALT or AST elevations were observed. Except for one Grade 3 AST elevation, all ALT and AST elevations were Grade 1 or Grade 2. […] All abnormalities in bilirubin were Grade 1 or Grade 2. […]

[2] = Study 202 biomarkers of inflammation; format: in vivo, human
Protocol: As an exploratory analysis, levels of inflammation biomarkers MCP-1, sCD14, high sensitivity C-reactive protein [hs-CRP], interleukin-6 [IL-6], D-dimer, and fibrinogen) were measured. Baseline values and changes from baseline at Week 24 and Week 48 of MCP-1, sCD14, hs-CRP, IL-6, D-dimer, and fibrinogen are summarized in Table 25.
The sCD14 samples were originally analyzed in 2 separate batches: Batch 1 included samples leading up to the Week 24 primary analysis and Batch 2 included Week 32 and Week 48 (end of study) samples. A repeat analysis of archived samples all analyzed in one batch was conducted for consistency in analysis across time points. To control for the effects of covariates, a linear mixed-model repeated-measures analysis was conducted on the changes from baseline in sCD14 (analysis dated September 2013).

[3] = All CVC (N = 115), EFV (N = 28)
[4] = All CVC (N = 115), EFV (N = 28), through Week 48

Question: Which results are given for `O=C1Nc2ccc(Cl)cc2[C@@](C#CC2CC2)(C(F)(F)F)O1` [EFV, efavirenz, reference compound]?
Answer: ALT abnormality, worst Grade 1 [1, 3]: 2 (7%) n (%); ALT abnormality, worst Grade 2 [1, 3]: 0 n (%); ALT abnormality, worst Grade 3 [1, 3]: 0 n (%); ALT abnormality, worst Grade 4 [1, 3]: 0 n (%); AST abnormality, worst Grade 1 [1, 3]: 3 (11%) n (%); AST abnormality, worst Grade 2 [1, 3]: 0 n (%); AST abnormality, worst Grade 3 [1, 3]: 0 n (%); AST abnormality, worst Grade 4 [1, 3]: 0 n (%); Alanine aminotransferase (ALT) abnormality, any worst grade [1, 3]: 2 (7%) n (%); Aspartate aminotransferase (AST) abnormality, any worst grade [1, 3]: 3 (11%) n (%); Bilirubin abnormality, any worst grade [1, 3]: 1 (4%) n (%); Bilirubin abnormality, worst Grade 1 [1, 3]: 1 (4%) n (%); Bilirubin abnormality, worst Grade 2 [1, 3]: 0 n (%); Bilirubin abnormality, worst Grade 3 [1, 3]: 0 n (%); Bilirubin abnormality, worst Grade 4 [1, 3]: 0 n (%); AST increased, Grade 3 [1, 4]: 0 n (%); AST increased, Grade 4 [1, 4]: 0 n (%); Any Grade 3 laboratory abnormality [1, 4]: 3 (11%) n (%); Any Grade 3 or Grade 4 laboratory abnormality [1, 4]: 4 (14%) n (%); Any Grade 4 laboratory abnormality [1, 4]: 1 (4%) n (%); Aspartate aminotransferase (AST) increased (Grade 3 or 4) [1, 4]: 0 n (%); CPK increased, Grade 3 [1, 4]: 2 (7%) n (%); CPK increased, Grade 4 [1, 4]: 0 n (%); Creatine phosphokinase (CPK) increased (Grade 3 or 4) [1, 4]: 2 (7%) n (%); Fibrinogen decreased (Grade 3 or 4) [1, 4]: 0 n (%); Fibrinogen decreased, Grade 3 [1, 4]: 0 n (%); Fibrinogen decreased, Grade 4 [1, 4]: 0 n (%); Hemoglobin decreased (Grade 3 or 4) [1, 4]: 0 n (%); Hemoglobin decreased, Grade 3 [1, 4]: 0 n (%); Hemoglobin decreased, Grade 4 [1, 4]: 0 n (%); Neutrophils decreased (Grade 3 or 4) [1, 4]: 1 (4%) n (%); Neutrophils decreased, Grade 3 [1, 4]: 0 n (%); Neutrophils decreased, Grade 4 [1, 4]: 1 (4%) n (%); Phosphate decreased (Grade 3 or 4) [1, 4]: 1 (4%) n (%); Phosphate decreased, Grade 3 [1, 4]: 1 (4%) n (%); Phosphate decreased, Grade 4 [1, 4]: 0 n (%); Prothrombin time/international normalized ratio increased (Grade 3 or 4) [1, 4]: 0 n (%); Prothrombin time/international normalized ratio increased, Grade 3 [1, 4]: 0 n (%); Prothrombin time/international normalized ratio increased, Grade 4 [1, 4]: 0 n (%); Any graded (Grade 1-4) laboratory abnormality, % ([1]; EFV): 89%; Worst Grade 1 laboratory abnormality, % ([1]; EFV): 46%; Worst Grade 2 laboratory abnormality, % ([1]; EFV): 29%; Worst Grade 3 laboratory abnormality, % ([1]; EFV): 11%; Worst Grade 4 laboratory abnormality, % ([1]; EFV): 4%; sCD14 Baseline value, Mean ([2]; EFV 600 mg): 2e+06 pg/mL; sCD14 change from baseline at Week 12, Mean ([2]; EFV 600 mg): 90000 pg/mL; sCD14 change from baseline at Week 12, Median ([2]; EFV 600 mg): 180000 pg/mL; sCD14 change from baseline at Week 24, Mean ([2]; EFV 600 mg): 230000 pg/mL; sCD14 change from baseline at Week 24, Median ([2]; EFV 600 mg): 130000 pg/mL; sCD14 change from baseline at Week 32, Mean ([2]; EFV 600 mg): 480000 pg/mL; sCD14 change from baseline at Week 32, Median ([2]; EFV 600 mg): 170000 pg/mL; sCD14 change from baseline at Week 48, Mean ([2]; EFV 600 mg): 640000 pg/mL; sCD14 change from baseline at Week 48, Median ([2]; EFV 600 mg): 460000 pg/mL; plasma MCP-1 over time ([2]; Study 202, up to Week 48): remained at baseline values
